Measured values taken from patent US9629835B1, “Method for treating tau-associated diseases” (NATIONAL TAIWAN NORMAL UNIVERSITY, priority 2016, dated 2017).

Tests used:
GSK-3β = assay: Western blot of total GSK-3β and phosphorylated GSK-3β (Ser9) in tauRD-DsRed SH-SY5Y cells; type: cell-based, human; settings: 10 μM
Experimental: We used human neuroblastoma cells (SH-SY5Y) expressing a DsRed-tagged proaggregation mutant (ΔK280) of the C-terminal repeat domain of tau (tauRD-Gln^244-Glu^372 of the longest tau^441 isoform). The recombinant tauRD-DsRed construct was under the control of a hybrid human cytomegalovirus (CMV)/TetO2 promoter that can be induced by adding doxycycline. The Tet-On ΔK280 tauRD-DsRed SH-SY5Y cells were grown in medium containing blasticidin (5 μg/mL) and hygromycin (100 μg/mL) and were then used for the following evaluation. […]
First, SH-SY5Y tauRD-DsRed cells were seeded in 6-well plates (1×10^5/well) in a medium containing all-trans retinoic acid ([…] Sigma) for inducing the neural differentiation. […] Next, immunoreactive bands were detected using horseradish peroxidase-conjugated goat anti-mouse, goat anti-rabbit, or donkey anti-goat IgG antibodies (1:5000; GeneTex) and chemiluminescent substrate (Millipore) for evaluating the expression levels thereof in cells.
The expression levels of total GSK-3β and phosphorylated GSK-3β are shown in FIG. 3 and the quantifications thereof are shown in FIG. 4 (*p<0.05, ***p<0.001). […]

[1] = Cytotoxicity in tauRD-DsRed 293 cells; type: cell-based; settings: human, 50% of viability
Experimental: (§1) TauRD-DsRed 293 cells were plated into 96-well plates, grown for 24 h, and treated with 0.1, 1, 10 μM of congo red (a known tau aggregation inhibitor), compound (I), compound (II), and compound (III) (SB216763) for 8 h. Then doxycycline (Dox; 1 μg/mL) was added for 3 days and DsRed fluorescence was assessed using a high content analysis system (HCA) system (ImageXpressMICRO, Molecular Devices).
Also, IC50 cytotoxicity of tauRD-DsRed 293 cells is shown in FIG. 2, wherein the standard line represents 50% of viability.

Recombinant human GSK-3β = molecular target: T1, Recombinant human GSK-3β (Homo sapiens, UniProt P49841); assay: GSK-3β kinase activity, ADP-Glo Kinase Assay; type: biochemical
T1 construct: purchased Promega V1991
Experimental: GSK-3β kinase activity was measured in the presence of the tested compounds (I) and (II) using ADP-Glo™ Kinase Assay system (Promega). Recombinant human GSK-3β (Product code V1991, Promega) was used as the enzyme source, and the GSK-3β substrate was derived from human muscle glycogen synthase 1 peptide ([…](pS)EDEEE) which corresponded to a region of glycogen synthase that was phosphorylated by GSK-3β. Reactions were performed at 30° C. for 30 minutes in the 25 μL mixture that contained 25 μM ATP, 0.2 mg/mL GSK-3β substrate, 1 ng of GSK-3β, and serial dilutions of compound (I), compound (II), or compound (III). Kinase activity data were measured as relative light units (RLU) directly correlated with the amount of ADP produced.
The IC50 values of compound (I), compound (II), and compound (III) were determined by using SigmaPLOT software. […] When the concentration of compound (I) and compound (II) were […] μM, the residual activities of GSK-3β of compounds (I) and (II) were 36.1±1.1%, and 90.9±6.6%, respectively.

[2] = test system: ΔK280 tauRD-DsRed 293 cells; assay: DsRed fluorescence (tau aggregation) in Tet-On ΔK280 tauRD-DsRed 293 cells, high content analysis; type: cell-based, human; settings: for DsRed fluorescence intensity relative to untreated cells (100%): 10 μM, 8 h pre-treatment, doxycycline 3 days
Experimental: We used HEK-293 human cells expressing a DsRed-tagged proaggregation mutant (ΔK280) of the C-terminal repeat domain of tau (tauRD-Gln^244-Glu^372 of the longest tau^441 isoform). The recombinant tauRD-DsRed construct was under the control of a hybrid human cytomegalovirus (CMV)/TetO2 promoter that can be induced by adding doxycycline. The Tet-On ΔK280tauRD-DsRed293 cells were grown in medium containing blasticidin (5 μg/mL) and hygromycin (100 μg/mL) and were used for the following evaluation.
as §1
According to the fluorescence microscopy images of untreated cells, and cells treated with congo red, compound (I), compound (II), and SB216763, the quantification results are shown in FIG. 1 which were analyzed related to 100% fluorescence intensity of the untreated cells. […] Based on the results that described above, compound (I) and compound (II) have the ability to decrease tau-aggregation in tauRD-DsRed 293 cells (*p<0.05, **p<0.01).

[3] = test system: mouse hippocampal primary culture cells; assay: Mouse hippocampal primary culture under tau toxicity induced by Wortmannin and GF 109203X; type: cell-based; settings: 1 μM, 12 hours, with 10 nM Wortmannin and GF 109203X
Experimental: The mouse hippocampal primary culture cells were isolated from the hippocampi of C57BL/6J mouse embryos at days 16-18. On days in vitro (DIV) 4 and 7, 2 μM of cytosine arabinoside was added to the culture medium to reduce the glial cell populations. On DIV 9, the cells were treated with 10 nM of Wortmannin (WT) and GF 109203X (GFX) to induce tau hyperphosphorylation to mimic an AD condition.
1 μM of compound (I) or compound (II) were then added to the cells at DIV 9. Cells were harvested 12 hours later for immunocytochemical staining with NeuN (for neuron) and MAP2 (for neurite morphology) antibodies.
The quantification of neuron numbers (NeuN relative expression levels), neurite outgrowth, and the relative number of neuron branches are shown in FIG. 7 to FIG. 9 (*, vs. control; #, vs. WT+GFX. * p<0.05; **/##p<0.01; ###p<0.001). […] The results indicated significant neuronal protective effects of compound (I) and compound (II).

T1 sequence (P49841 whole entry): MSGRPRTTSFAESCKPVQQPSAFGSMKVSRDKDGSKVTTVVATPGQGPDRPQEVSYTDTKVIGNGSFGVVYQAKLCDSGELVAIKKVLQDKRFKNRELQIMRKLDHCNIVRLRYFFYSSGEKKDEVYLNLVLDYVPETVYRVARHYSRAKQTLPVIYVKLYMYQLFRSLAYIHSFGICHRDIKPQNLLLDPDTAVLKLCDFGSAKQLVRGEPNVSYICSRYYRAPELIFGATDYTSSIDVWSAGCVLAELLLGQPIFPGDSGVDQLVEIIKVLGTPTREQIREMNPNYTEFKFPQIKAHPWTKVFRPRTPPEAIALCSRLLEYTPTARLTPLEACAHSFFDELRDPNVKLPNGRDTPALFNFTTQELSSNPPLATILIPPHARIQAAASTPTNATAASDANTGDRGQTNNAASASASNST

| Compound | total GSK-3β expression vs untreated cells (GSK-3β) | IC50 [1] [µM] | remaining activity at 0.018 µM (Recombinant human GSK-3β; compound concentration 0.018 μM, read-out: residual activity of GSK-3β) [%] | IC50 (Recombinant human GSK-3β; recombinant human GSK-3β, 25 μM ATP, 30° C., 30 minutes) [µM] | DsRed fluorescence intensity relative to untreated cells (100%) [2] [%] | neuronal protective effect (NeuN neuron number, neurite length, neurite branches) [3] | effect on tauRD-DsRed fluorescence ([2]; 0.1, 1, 10 μM) |
| --- | --- | --- | --- | --- | --- | --- | --- |
| Cc1ccc(-c2cc(-c3ccncc3)nc3ccccc23)cc1 [compound (I)] | remained about the same without significant changes | 25.7 | 36.1 ± 1.1 | 0.0002 | 116 | alleviate the reduction of neuronal survival rate, neurite length, and/or neurite branches |  |
| CN1CC(C2=C(c3ccc(Cl)cc3Cl)C(=O)NC2=O)c2ccccc21 (centres unmarked) [compound (III), reference compound] |  |  |  |  |  |  | no effect |
| Nc1c(/N=N/c2ccc(-c3ccc(/N=N/c4cc(S(=O)(=O)O)c5ccccc5c4N)cc3)cc2)cc(S(=O)(=O)O)c2ccccc12 [congo red] |  |  |  |  | 110 |  |  |
